# According to patent US11058780B2, “Palpable marker composition” (TECHNICAL UNIVERSITY OF DENMARK, priority 2016, dated 2021):
# Assay: Solubility in ethanol and doping of iodo-SAIB into SAIB
# Format: physicochemical
# Details: neat LOIB
compound,measurement,value
"CC(C)C(=O)OC[C@H]1O[C@@H](O[C@H]2[C@H](OC(=O)C(C)C)[C@@H](OC(=O)C(C)C)C(OC(=O)C(C)C)O[C@@H]2COC(=O)C(C)C)[C@H](OC(=O)C(C)C)[C@@H](OC(=O)C(C)C)[C@H]1OC(=O)C(C)C (stereo partly drawn) [LOIB, α,β Lactose Octaisobutyrate]",solubility in anhydrous EtOH,readily dissolves
